Test results from patent US20070099891A1, “Medicinal compositions and combinations” (priority 2003, published 2007).

Columns and labels:
[1] = system: HepG2 cell; test: LDL binding, uptake and degradation activity in cultured human hepatic cell line HepG2 ([125I]LDL); type: cell-based; conditions: for Binding Amounts / Degradation Amounts / Uptake Amounts: mean ± standard error, 6 experiments
Experimental: The cultured human hepatic cell line HepG2 cell was purchased from the Dainippon Pharmaceuticals Co. Ltd. (Osaka, Japan). The determinations of LDL binding, uptake and degradation activity were performed according to a prior report (Method in Enzymology, 98, 241-255, 1983). Cells were seeded in a 24 well plate and were incubated in the Dulbecco's modified Eagle/F-12 (DMEM/F-12) medium containing 10% fetal bovine serum and antibiotics at 37° C. for two days. After washing the cells, a DMEM/F-12 medium containing 10% lipoprotein-removed serum, the test substrate and the antibiotics was added and the cells were incubated at 37° C. for 19 hours. After adding [^125I]LDL, the cells were incubated at 37° C. for another 5 hours. The culture supernatant was collected and trichloroacetic acid was added thereto, and then it was statically kept for 30 minutes or more at 4° C. After centrifuging (700×g, 4° C., 15 min.), the supernatant was separated and sodium iodide was added thereto, and further hydrogen peroxide was added. After treating the mixture at room temperature for 5 min., chloroform was added and the mixture was stirred. After centrifuging (700×g, 4° C., 5 min.), the radioactivity in the supernatant was measured by a gamma counter, and then the data thus obtained was evaluated as an amount of degradation of LDL. Separately, after washing the cells thoroughly, a dissociation buffer (50 mM NaCl, 10 mM 2-[4-(2-hydroxyethyl)-1-piperadinyl]ethane sulfonic acid (HEPES, pH 7.4), 10 mg/mL heparin) was added and then the cells were statically kept at 4° C. for 60 min. or more. […] Furthermore, 1N sodium hydroxide was added to the remaining cells and the mixture was reacted for more than 10 min. to dissolve the cells. […] On the other hand, the amounts of non-specific degradation, binding and uptake were evaluated by coexisting an excess of non-labeled LDL on addition of [^125I] LDL, while the amounts of specific degradation, binding and uptake were obtained by subtracting the amounts of non-specific degradation, binding and uptake from the total amounts of degradation, binding and uptake and further calibrating with the amounts of protein.

[2] = system: rabbit with endogenous hyperlipemia caused by a casein diet load; test: Blood cholesterol lowering action in endogenous hyperlipemia rabbit (casein diet); type: in vivo, New Zealand White rabbit
Experimental: 8 weeks old male New Zealand White rabbit were bred for 12 days with ad libitum water and feeding conditions (rabbit·guinea pig breeding feed RC4, Oriental Yeast Co., Ltd., Tokyo, Japan). Thereafter, the diet was replaced with the casein diet containing 27% casein (Oriental Yeast Co., Ltd., Tokyo, Japan), and then the restricted feeding to the 100 g per 3 kg weight was performed for one week. At this point, the blood was collected via auricular veins and the plasma total cholesterol amounts was measured and then these rabbits were divided such that the mean of the weight and the plasma total cholesterol were equal approximately. […] Each agent was dissolved in propylene glycol containing 0.5% polyoxyethylenesorbitan monooleate (Tween 80) and then these were administered orally. On the other hand, for control group, the solvent (propylene glycol comprising 0.5% Tween 80) was administered orally. At one day after final administration, the blood was collected and plasma total cholesterol was measured and also the lipoprotein was fractioned according to the differential ultracentrifugation method (Nobuhiro, Yamada, Yasushi Sato edit.: Study strategy of Arteriosclerotic+Hyperlipemia, 63-69, 1996, Shujunsha Co. Ltd.), and then the amounts of cholesterol in the fraction of LDL were measured. The amount of total cholesterol in plasma and the amount of cholesterol in LDL fraction were determined by using an automatic biochemical analyzer (Biochemical Analyzer CHEM 1, Bayer Corporation, NY, USA).

[3] = system: LDL receptor protein; test: Expression of LDL receptor protein in liver of endogenous hyperlipemia rabbit (immunoblotting); type: in vivo; conditions: casein diet
Experimental: For the rabbit used in Example 2, liver was taken out after one day of a final administration of the agent. A homogenizing buffer (20 mM Tris-HCl (pH 8.0), 1 mM CaCl2, 150 mM NaCl, a mix of protease inhibitor) was added to a part of this liver and the mixture was homogenized and centrifuged at 8000×g, 4° C. for 10 min., thereafter the supernatant was ultracentrifuged at […], 4° C. for 60 min. The resulting precipitate was washed by adding the homogenizing buffer and centrifuging at 10,000×g, 4° C. for 30 min., and thereafter was suspended in a suspension buffer (125 mM Tris-maleate (pH 6.8), 1 mM CaCl2, 160 mM NaCl, 1% (w/v) Triton X-100, Protease inhibitor (Complete™, Boehringer Ingelhaim Co., Ltd., Ingelheim, Germany)) to prepare a fraction of the liver membrane. After mixing with a buffer (125 mM Tris-HCl (pH 6.8), 20% (v/v) glycerol, 4% (w/v) sodium dodecyl sulfate (hereinafter, referred to as SDS) and 0.001% (w/v) bromophenol blue), the fraction was subjected to SDS polyacrylamide electrophoresis (using a 7.5% polyacrylamide gel), and the resultant was transferred to a polyvinylidene difluoride (PVDF) membrane and then the amount of LDL receptor protein was evaluated by an immunoblotting using anti-LDL receptor antibody. […]

[4] = single agent; not reduced more even if the dosage is increased; cited from earlier work
[5] = 1 mg/kg orally for 3 weeks, mean ± standard error

SMILES | amounts of binding, uptake and degradation of LDL (in words) ([1]; compound A 0.01 to 1 μM) | Binding Amounts ([1]; single agent 0.01 μM) [ng/mg protein] | Degradation Amounts ([1]; single agent 0.01 μM) [ng/mg protein] | Uptake Amounts ([1]; single agent 0.01 μM) [ng/mg protein] | Binding Amounts ([1]; single agent 0.1 μM) [ng/mg protein] | Degradation Amounts ([1]; single agent 0.1 μM) [ng/mg protein] | Uptake Amounts ([1]; single agent 0.1 μM) [ng/mg protein] | Binding Amounts ([1]; single agent 1 μM) [ng/mg protein] | Degradation Amounts ([1]; single agent 1 μM) [ng/mg protein] | Uptake Amounts ([1]; single agent 1 μM) [ng/mg protein] | plasma LDL cholesterol [2, 5] [mg/dL] | plasma total cholesterol [2, 5] [mg/dL] | plasma total cholesterol lowering action and plasma LDL cholesterol lowering action (in words) ([2]; 1 mg/kg, compared to control) | amount of the expression of LDL receptor protein in liver (in words, FIG. 1) ([3]; compound A 1 mg/kg) | degree of lowering of LDL cholesterol [4] [%] | Binding Amounts ([1]; single agent 10 μM) [ng/mg protein] | Degradation Amounts ([1]; single agent 10 μM) [ng/mg protein] | amount of the expression of LDL receptor protein in liver (in words, FIG. 1) ([3]; atorvastatin 1 and 3 mg/kg)
CCCCn1c(=O)c(NC(=O)Nc2c(C(C)C)cc(N)cc2C(C)C)c(-c2cccc(OCCCO)c2)c2cccnc21 [Compd. A, N-[1-butyl-4-[3-[3-(hydroxy)propoxy]phenyl]-1,2-dihydro-2-oxo-1,8-naphthyridine-3-yl]-N′-(2,6-diisopropyl-4-aminophenyl)urea] | increased | 85.2 ± 3.6 | 927.5 ± 90.0 | 852.9 ± 47.3 | 90.9 ± 4.1 | 1016.8 ± 45.3 | 886.4 ± 29.2 | 93.7 ± 2.5 | 1126.3 ± 70.3 | 1172.2 ± 46.2 | 52 ± 9 | 108 ± 5 | significant effects | increased | – | – | – | –
O=C1[C@H](CC[C@H](O)c2ccc(F)cc2)[C@@H](c2ccc(O)cc2)N1c1ccc(F)cc1 [ezetimibe, 1-(4-fluorophenyl)-3(R)-[3-(4-fluorophenyl)-3(S)-hydroxypropyl]-4(S)-(4-hydroxyphenyl)-2-azetidinone] | – | – | – | – | – | – | – | – | – | – | – | – | – | – | 15 to 20 | – | – | –
CC(C)c1c(C(=O)Nc2ccccc2)c(-c2ccccc2)c(-c2ccc(F)cc2)n1CC[C@@H](O)C[C@@H](O)CC(=O)O [Atorvastatin, atorvastatin, reference compound] | – | – | – | – | 81.7 ± 2.1 | 800.9 ± 32.5 | – | 86.3 ± 2.7 | 1000.5 ± 62.9 | – | – | – | – | – | – | 95.5 ± 4.0 | 1062.3 ± 66.0 | increased
